The values that follow come from patent publication US10059701B2 (Merck Patent GmbH, priority 2015, dated 2018).

For orientation: IC50 means the concentration that inhibits the measured activity by half.

Counter-ions that a name gives are not always drawn.

One assay concerns the target T1, IRAK1 (Homo sapiens, UniProt P51617).
T1 construct: His-TEV-IRAK1 (194-712); His (N); TEV cleavage site (N)
As to the kind of experiment: IRAK1 enzymatic assay (ADP-Glo luminescence). To be noted: purified human recombinant His-TEV-IRAK1 (194-712). The class given is biochemical. Summed up:
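Luminescent ADP-Glo read-out of ATP turnover by purified His-TEV-IRAK1 (194-712) at 0.3 μg/ml after a 2-hour RT reaction. Compounds, serially diluted from 10 μM to 0.5 nM, were preincubated with enzyme 15 minutes in Hepes pH 7.0 buffer with MgCl2, DTT, EGTA and Triton X-100.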
(In ADP-Glo the light output rises with the ADP produced.)

In the next assay the target is T2, IRAK4 (Homo sapiens, UniProt Q9NWZ3).
T2 construct: His-TEV-IRAK4 (1-460); His (N); TEV cleavage site (N)
T2 sequence (Q9NWZ3 1-460): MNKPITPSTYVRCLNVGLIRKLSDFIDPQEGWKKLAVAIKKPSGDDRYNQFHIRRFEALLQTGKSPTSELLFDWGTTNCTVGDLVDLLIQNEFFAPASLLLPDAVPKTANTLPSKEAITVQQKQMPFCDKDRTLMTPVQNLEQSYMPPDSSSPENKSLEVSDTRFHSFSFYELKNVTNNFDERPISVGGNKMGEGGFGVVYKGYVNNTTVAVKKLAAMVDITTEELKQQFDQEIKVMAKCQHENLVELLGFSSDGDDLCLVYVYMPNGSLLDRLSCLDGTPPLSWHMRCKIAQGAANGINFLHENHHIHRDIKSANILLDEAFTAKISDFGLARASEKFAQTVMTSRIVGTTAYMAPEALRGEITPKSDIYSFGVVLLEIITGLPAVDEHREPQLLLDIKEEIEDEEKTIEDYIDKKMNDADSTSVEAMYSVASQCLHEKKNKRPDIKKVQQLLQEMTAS
The assay can be described thus: IRAK4 enzymatic assay (ADP-Glo luminescence). The class given is biochemical. The settings on record: purified human recombinant His-TEV-IRAK4 (1-460), ATP 2 μM. The method, boiled down:
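ADP-Glo luminescence read-out after a 2 h RT kinase reaction with 2 μM ATP and 300 nM biotinylated STK1 peptide. Enzyme (His-TEV-IRAK4 1-460, 0.3 μg/ml) first incubated 15 min with serially diluted compounds (10 μM–0.5 nM) in 50 mM Hepes pH 7.0, 10 mM MgCl2, 5 mM MnCl2.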

T1 sequence (P51617 194-712): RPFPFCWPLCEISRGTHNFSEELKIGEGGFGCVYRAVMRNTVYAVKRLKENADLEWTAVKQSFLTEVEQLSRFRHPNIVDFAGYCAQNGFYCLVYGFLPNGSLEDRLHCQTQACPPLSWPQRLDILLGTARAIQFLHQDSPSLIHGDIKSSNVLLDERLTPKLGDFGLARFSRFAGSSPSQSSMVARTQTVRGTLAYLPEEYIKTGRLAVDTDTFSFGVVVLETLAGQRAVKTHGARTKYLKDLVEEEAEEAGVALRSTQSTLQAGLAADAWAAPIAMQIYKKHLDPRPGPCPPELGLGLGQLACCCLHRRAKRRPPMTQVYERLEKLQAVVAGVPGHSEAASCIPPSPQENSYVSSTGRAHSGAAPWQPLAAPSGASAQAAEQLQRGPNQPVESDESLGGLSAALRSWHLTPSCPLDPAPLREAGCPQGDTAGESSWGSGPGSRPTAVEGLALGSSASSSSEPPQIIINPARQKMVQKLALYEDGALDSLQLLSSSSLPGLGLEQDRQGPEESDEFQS

Regarding `O=C(/N=c1\[nH]c2cc(N3CCOCC3=O)ccc2n1CCCO)c1ccc(F)c(C(F)(F)F)c1` [Compound 5, (E)-4-fluoro-N-(1-(3-hydroxypropyl)-5-(3-oxomorpholino)-1H-benzo[d]imidazol-2(3H)-ylidene)-3-(trifluoromethyl)benzamide], the half-maximal inhibitory concentration (IC50) at IRAK1 and at IRAK4 was no more than 100 nM in each case.

Take `CC1(C)NCCN(c2ccc3c(c2)[nH]/c(=N\C(=O)c2cccc(C(F)(F)F)c2)n3CCCO)C1=O` [Compound 191, (E)-N-(5-(3,3-dimethyl-2-oxopiperazin-1-yl)-1-(3-hydroxypropyl)-1H-benzo[d]imidazol-2(3H)-ylidene)-3-(trifluoromethyl)benzamide hydrochloride]: the IC50 was 100 to 1000 nM on IRAK1 and no more than 100 nM at IRAK4.

With `O=C(/N=c1\[nH]c2cc(N3CCOCC3=O)ccc2n1CCCO)c1cccc(Br)c1` [Compound 37, (E)-3-bromo-N-(1-(3-hydroxypropyl)-5-(3-oxomorpholino)-1H-benzo[d]imidazol-2(3H)-ylidene)benzamide], the half-inhibitory concentration (IC50) at IRAK1 is 100 to 1000 nM; at IRAK4, no more than 100 nM.

Regarding `C[C@H](CCO)n1/c(=N/C(=O)c2cccc(C#N)c2)[nH]c2cc(N3CCOCC3=O)ccc21` [Compound 10, (R,E)-3-cyano-N-(1-(4-hydroxybutan-2-yl)-5-(3-oxomorpholino)-1H-benzo[d]imidazol-2(3H)-ylidene)benzamide], the IC50 at IRAK1 was 100 to 1000 nM; at IRAK4 it was no more than 100 nM.

For `O=C(/N=c1\[nH]c2cc(N3CCCN(C4CC4)CC3=O)ccc2n1CCCO)c1cccc(C(F)(F)F)c1` [Example 192, (E)-N-(5-(4-cyclopropyl-2-oxo-1,4-diazepan-1-yl)-1-(3-hydroxypropyl)-1H-benzo[d]imidazol-2(3H)-ylidene)-3-(trifluoromethyl)benzamide], the figures for the concentration for half-maximal inhibition (IC50) on IRAK1 and at IRAK4 were 100 to 1000 nM and no more than 100 nM, respectively.

Turning to `O=C(/N=c1\[nH]c2cc(N3CCOCC3=O)ccc2n1CCCO)c1cccc(OC(F)(F)F)c1` [Compound 7, (E)-N-(1-(3-hydroxypropyl)-5-(3-oxomorpholino)-1H-benzo[d]imidazol-2(3H)-ylidene)-3-(trifluoromethoxy)benzamide], the concentration for half-maximal inhibition (IC50) on IRAK1 was 100 to 1000 nM; at IRAK4, no more than 100 nM.

For the compound `O=C(/N=c1\[nH]c2cc(N3C(=O)CN4CCC3CC4)ccc2n1CCCO)c1cccc(C(F)F)c1` [Example 212, (E)-3-(difluoromethyl)-N-(1-(3-hydroxypropyl)-5-(3-oxo-1,4-diazabicyclo[3.2.2]nonan-4-yl)-1H-benzo[d]imidazol-2(3H)-ylidene)benzamide], the IC50 is 100 to 1000 nM at IRAK1 and no more than 100 nM at IRAK4.

As to `O=C(/N=c1\[nH]c2cc(N3CCCOC3=O)ccc2n1CC1CCCOC1)c1cccc(C(F)(F)F)c1` (stereo not drawn) [Compound 180, (E)-N-(5-(2-oxo-1,3-oxazinan-3-yl)-1-((tetrahydro-2H-pyran-3-yl)methyl)-1H-benzo[d]imidazol-2(3H)-ylidene)-3-(trifluoromethyl)benzamide], the results for the IC50 on IRAK1 and on IRAK4 were 100 to 1000 nM and no more than 100 nM, respectively.

For `O=C(/N=c1\[nH]c2cc(N3CCCOC3=O)ccc2n1CCCO)c1cccc(C(F)(F)F)c1` [Compound 33, (E)-N-(1-(3-hydroxypropyl)-5-(2-oxo-1,3-oxazinan-3-yl)-1H-benzo[d]imidazol-2(3H)-ylidene)-3-(trifluoromethyl)benzamide], the IC50 on IRAK1 and on IRAK4 was no more than 100 nM in each case.

`O=C(/N=c1\[nH]c2cc(N3CCOCC3=O)ccc2n1CCCO)c1cccc(CF)c1` [Compound 104, (E)-3-(fluoromethyl)-N-(1-(3-hydroxypropyl)-5-(3-oxomorpholino)-1H-benzo[d]imidazol-2(3H)-ylidene)benzamide]: the half-maximal inhibitory concentration (IC50) at IRAK1 was 100 to 1000 nM; at IRAK4, no more than 100 nM.

Take `C[S+]([O-])CCCCn1/c(=N/C(=O)c2cccc(C(F)F)c2)[nH]c2cc(N3CCOCC3=O)ccc21` (stereo not drawn) [Compound 88]: the half-inhibitory concentration (IC50) at IRAK1 is 100 to 1000 nM; at IRAK4, no more than 100 nM.

As to `O=C(/N=c1\[nH]c2cc(N3CC4CC(N4)C3=O)ccc2n1CCCO)c1cccc(C(F)F)c1` (stereo not drawn) [Example 213, (E)-3-(difluoromethyl)-N-(1-(3-hydroxypropyl)-5-(2-oxo-3,6-diazabicyclo[3.1.1]heptan-3-yl)-1H-benzo[d]imidazol-2(3H)-ylidene)benzamide], the half-maximal inhibitory concentration (IC50) was 100 to 1000 nM on IRAK1 and no more than 100 nM on IRAK4.

On to `N#Cc1cccc(C(=O)/N=c2\[nH]c3cc(N4CCOC4=O)ccc3n2CCCO)c1` [Compound 11, (E)-3-cyano-N-(1-(3-hydroxypropyl)-5-(2-oxooxazolidin-3-yl)-1H-benzo[d]imidazol-2(3H)-ylidene)benzamide], for which the IC50 on IRAK1 was 100 to 1000 nM; at IRAK4, no more than 100 nM.

As to `CN(C)S(=O)(=O)c1cccc(C(=O)/N=c2\[nH]c3cc(N4CCOCC4=O)ccc3n2CCCO)c1` [Compound 101, (E)-3-(N,N-dimethylsulfamoyl)-N-(1-(3-hydroxypropyl)-5-(3-oxomorpholino)-1H-benzo[d]imidazol-2(3H)-ylidene)benzamide], the IC50 on IRAK1 was 100 to 1000 nM; at IRAK4, no more than 100 nM.

Take `O=C(/N=c1\[nH]c2cc(N3CCCOCC3=O)ccc2n1CCCO)c1cccc(C(F)(F)F)c1` [Compound 193, (E)-N-(1-(3-hydroxypropyl)-5-(3-oxo-1,4-oxazepan-4-yl)-1H-benzo[d]imidazol-2(3H)-ylidene)-3-(trifluoromethyl)benzamide]: the half-maximal inhibitory concentration (IC50) at IRAK1 and on IRAK4 was no more than 100 nM in each case.

For the compound `O=C(/N=c1\[nH]c2cc(N3CCOCC3=O)ccc2n1C1CCCC(CO)C1)c1cccc(C(F)F)c1` (stereo not drawn) [Compound 121, (E)-3-(difluoromethyl)-N-(1-(3-(hydroxymethyl)cyclohexyl)-5-(3-oxomorpholino)-1H-benzo[d]imidazol-2(3H)-ylidene)benzamide], the IC50 on IRAK1 is 100 to 1000 nM; on IRAK4, no more than 100 nM.

As for `Cn1cnc2ccc(C(=O)/N=c3\[nH]c4cc(N5CCOCC5=O)ccc4n3CCCO)cc21` [Compound 20, (E)-N-(1-(3-hydroxypropyl)-5-(3-oxomorpholino)-1H-benzo[d]imidazol-2(3H)-ylidene)-1-methyl-1H-benzo[d]imidazole-6-carboxamide], the IC50 at IRAK1 is greater than 1000 nM; at IRAK4, 100 to 1000 nM.

For the compound `O=C(/N=c1\[nH]c2cc(N3CCOCC3=O)ccc2n1CC1(CO)CC1)c1cccc(C(F)(F)F)c1` [Compound 9, (E)-N-(1-((1-(hydroxymethyl)cyclopropyl)methyl)-5-(3-oxomorpholino)-1H-benzo[d]imidazol-2(3H)-ylidene)-3-(trifluoromethyl)benzamide], the 50% inhibitory concentration (IC50) is 100 to 1000 nM at IRAK1 and no more than 100 nM at IRAK4.

Take `CSCCCCn1/c(=N/C(=O)c2cccc(C(F)F)c2)[nH]c2cc(N3CCOCC3=O)ccc21` [Compound 89, (E)-3-(difluoromethyl)-N-(1-(4-(methylthio)butyl)-5-(3-oxomorpholino)-1H-benzo[d]imidazol-2(3H)-ylidene)benzamide]: the IC50 at IRAK1 is greater than 1000 nM; at IRAK4 it was 100 to 1000 nM.

For `[2H]C([2H])([2H])Oc1cc2c(cc1N1CCOCC1=O)[nH]/c(=N\C(=O)c1cccc(C(F)(F)F)c1)n2CCCO` [Example 202, (E)-N-(1-(3-hydroxypropyl)-6-(trideuteromethoxy)-5-(3-oxomorpholino)-1H-benzo[d]imidazol-2(3H)-ylidene)-3-(trifluoromethyl)benzamide], the 50% inhibitory concentration (IC50) on IRAK1 and at IRAK4 was no more than 100 nM each time.

In the case of `CS(=O)(=O)c1cccc(C(=O)/N=c2\[nH]c3cc(N4CCOCC4=O)ccc3n2CCCO)c1` [Compound 82, (E)-N-(1-(3-hydroxypropyl)-5-(3-oxomorpholino)-1H-benzo[d]imidazol-2(3H)-ylidene)-3-(methylsulfonyl)benzamide], the 50% inhibitory concentration (IC50) on IRAK1 was 100 to 1000 nM; on IRAK4, no more than 100 nM.

In the case of `O=C(/N=c1\[nH]c2cc(N3CCOCC3=O)c(Cl)cc2n1CCCO)c1cccc(C(F)(F)F)c1` [Compound 141, (E)-N-(6-chloro-1-(3-hydroxypropyl)-5-(3-oxomorpholino)-1H-benzo[d]imidazol-2(3H)-ylidene)-3-(trifluoromethyl)benzamide], the IC50 is greater than 1000 nM on IRAK1 and no more than 100 nM at IRAK4.

Take `O=C(/N=c1\[nH]c2cc(-n3ccccc3=O)ccc2n1CCCO)c1cccc(C(F)F)c1` [Example 194, (E)-3-(difluoromethyl)-N-(1-(3-hydroxypropyl)-5-(2-oxopyridin-1(2H)-yl)-1H-benzo[d]imidazol-2(3H)-ylidene)benzamide]: the IC50 at IRAK1 is 100 to 1000 nM; at IRAK4, no more than 100 nM.

As to `O=C(/N=c1\[nH]c2cc(N3CCOCC3=O)c(C3CC3)cc2n1CCCO)c1cccc(C(F)F)c1` [Example 209, (E)-N-(6-cyclopropyl-1-(3-hydroxypropyl)-5-(3-oxomorpholino)-1H-benzo[d]imidazol-2(3H)-ylidene)-3-(difluoromethyl)benzamide], the half-maximal inhibitory concentration (IC50) at IRAK1 and on IRAK4 was no more than 100 nM throughout.
